Measurements reported in patent publication US20090221829A1 (priority 2005, published 2009).

Each compound was assayed on Candida albicans(KCTC 1940), Aspergillus niger (ATCC 9642) and Saccharomyces cerevisiae (assay: Relative antifungal activity by agar dilution method (vs Miconazole)). Conditions: agar dilution method; fungicidal concentration relative to control drug Miconazole (=4).
Format: cell-based
Source text: Novel compounds represented by the above chemical formula (I), and the relative activities in accordance with the agar dilution method in Sabouraud dextrose agar media, Czapek agar media and Yeast Extract-Peptone-Dextrose agar media for Candida albicans(KCTC 1940), Aspergillus niger (ATCC 9642) and Saccharomyces cerevisiae are described respectively in following Table 1.
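Also: scores 5 to 7 mean a lower fungicidal concentration than Miconazole so higher is more potent.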

| SMILES | Relative Activity |
| --- | --- |
| CCCCCCCCCCCCCCCC1=[N+](Cc2ccc(C(F)(F)F)cc2)CCc2cc3c(cc21)OCO3.[Cl-] [Compound No. 109, 1-n-pentadecyl-2-(4-trifluoromethylphenyl)methyl-3,4-dihydro-6,7-methylenedioxyisoquinolinium chloride] | 1 |
| CCCCCC1=[N+](Cc2ccc(OC)cc2)CCc2cc(OC)c(OC)cc21.[Cl-] [Compound No. 34, 1-n-pentyl-2-(4-methoxyphenyl)methyl-3,4-dihydro-6,7-dimethoxyisoquinolinium chloride] | 4 |
| CCCCCC1=[N+](Cc2ccc(C(F)(F)F)cc2)CCc2cc(OC)c(OC)cc21.[Cl-] [Compound No. 27, 1-n-pentyl-2-(4-trifluoromethylphenyl)methyl-3,4-dihydro-6,7-dimethoxyisoquinolinium chloride] | 4 |
| COc1cc2c(cc1OC)C(C)=[N+](Cc1cc(Br)c(OC)c(OC)c1)CC2.[Cl-] [Compound No. 78, 1-methyl-2-(3-bromo-4,5-dimethoxy)methyl-3,4-dihydro-6,7-dimethoxyisoquinolinium chloride] | 6 |
| CCCCCCC1=[N+](Cc2ccc(OC)cc2)CCc2cc(OC)c(OC)cc21.[Cl-] [Compound No. 35, 1-n-hexyl-2-(4-methoxyphenyl)methyl-3,4-dihydro-6,7-dimethoxyisoquinolinium chloride] | 4 |
| COc1cc2c(cc1OC)C(CCc1ccc(C(C)(C)C)cc1)=[N+](Cc1c(F)c(F)c(C(F)(F)F)c(F)c1F)CC2.[Cl-] [Compound No. 131, 1-(2-(4-t-butylphenyl))ethyl-2-(2,3,5,6-tetrafluoro-4-trifluoromethylphenyl)methyl-3,4-dihydro-6,7-dimethoxy isoquinolinium chloride] | 4 |
| CCCCCCCCCCCC1=[N+](Cc2ccc(OC)cc2)CCc2cc(OC)c(OC)cc21.[Cl-] [Compound No. 37, 1-n-undecyl-2-(4-methoxyphenyl)methyl-3,4-dihydro-6,7-dimethoxyisoquinolinium chloride] | 2 |
| CCCCCCCCCCCCCCCC1=[N+](Cc2ccc(F)c(F)c2)CCc2cc3c(cc21)OCO3.[Cl-] [Compound No. 113, 1-n-pentadecyl-2-(3,4-difluorophenyl)methyl-3,4-dihydro-6,7-methylenedioxyisoquinolinium chloride] | 1 |
| COc1cc2c(cc1OC)C(CCc1ccc(C(C)(C)C)cc1)=[N+](Cc1cccc(OC)c1OCc1cccc(OC)c1OC)CC2.[Cl-] [Compound No. 136, 1-(2-(4-t-butylphenyl))ethyl-2-(2-(2,3-dimethoxybenzyloxy)-3-methoxyphenyl)methyl-3,4-dihydro-6,7-dimethoxy isoquinolinium chloride] | 4 |
| COc1cc2c(cc1OC)C(C(C)C)=[N+](Cc1ccccc1F)CC2.[Cl-] [Compound No. 6, 1-i-propyl-2-(2-fluorophenyl)methyl-3,4-dihydro-6,7-dimethoxyisoquinolinium chloride] | 5 |
| CCCCCC1=[N+](Cc2ccccc2F)CCc2cc(OC)ccc21.[Cl-] [Compound No. 85, 1-n-pentyl-2-(2-fluorophenyl)methyl-3,4-dihydro-6-methoxyisoquinolinium chloride] | 5 |
| CCCCCCCCCCCC1=[N+](Cc2ccc(O)c([N+](=O)[O-])c2)CCc2cc(OC)c(OC)cc21.[Cl-] [Compound No. 77, 1-n-undecyl-2-(4-hydroxy-3-nitrophenyl)methyl-3,4-dihydro-6,7-dimethoxyisoquinolinium chloride] | 2 |
| COc1cc2c(cc1OC)C(Cc1ccccc1F)=[N+](Cc1ccccc1F)CC2.[Cl-] [Compound No. 24, 1-(2-fluorophenyl)methyl-2-(2-fluorophenyl)methyl-3,4-dihydro-6,7-dimethoxyisoquinolinium chloride] | 6 |
| COc1cc2c(cc1OC)C(c1ccc(Cl)cc1)=[N+](Cc1ccccc1F)CC2.[Cl-] [Compound No. 20, 1-(4-chlorophenyl)-2-(2-fluorophenyl)methyl-3,4-dihydro-6,7-dimethoxyisoquinolinium chloride] | 6 |
| COc1cc2c(cc1OC)C(CCl)=[N+](Cc1ccccc1F)CC2.[Cl-] [Compound No. 3, 1-chloromethyl-2-(2-fluorophenyl)methyl-3,4-dihydro-6,7-dimethoxy-isoquinolinium chloride] | 6 |
| CCCC1=[N+](Cc2ccc(C(C)(C)C)cc2)CCc2cc(OC)c(OC)cc21.[Cl-] [Compound No. 123, 1-propyl-2-(4-t-butylphenyl)methyl-3,4-dihydro-6,7-dimethoxyisoquinolinium chloride] | 6 |
| CCCCCCCC1=[N+](Cc2c(F)cccc2F)CCc2cc(OC)c(OC)cc21.[Cl-] [Compound No. 61, 1-n-heptyl-2-(2,6-difluorophenyl)methyl-3,4-dihydro-6,7-dimethoxyisoquinolinium chloride] | 4 |
| COc1cc2c(cc1OC)C(c1ccccc1F)=[N+](Cc1c(F)cccc1Cl)CC2.[Cl-] [Compound No. 69, 1-(2-fluorophenyl)-2-(2-chloro-6-fluorophenyl)methyl-3,4-dihydro-6,7-dimethoxyisoquinolinium chloride] | 6 |
| CCCCCCCCCCCCCCCC1=[N+](Cc2ccc(F)cc2)CCc2cc(OC)c(OC)cc21.[Cl-] [Compound No. 38, 1-n-pentadecyl-2-(4-fluorophenyl)methyl-3,4-dihydro-6,7-dimethoxyisoquinolinium chloride] | 1 |
| COc1cc2c(cc1OC)C(C(C)C)=[N+](Cc1ccccc1[N+](=O)[O-])CC2.[Cl-] [Compound No. 72, 1-i-propyl-2-(2-nitrophenyl)methyl-3,4-dihydro-6,7-dimethoxyisoquinolinium chloride] | 6 |
| CCCCCCCCCCCC1=[N+](Cc2ccc(C(F)(F)F)cc2)CCc2cc(F)ccc21.[Cl-] [Compound No. 137, 1-undecyl-2-(4-trifluoromethylphenyl)methyl-3,4-dihydro-6-fluoro isoquinolinium chloride] | 1 |
| CCCCCC1=[N+](Cc2ccccc2Cl)CCc2cc(OC)c(OC)cc21.[Cl-] [Compound No. 50, 1-n-pentyl-2-(2-chlorophenyl)methyl-3,4-dihydro-6,7-dimethoxyisoquinolinium chloride] | 6 |
| CCCCCCCC1=[N+](Cc2ccccc2[N+](=O)[O-])CCc2cc(OC)c(OC)cc21.[Cl-] [Compound No. 73, 1-n-heptyl-2-(2-nitrophenyl)methyl-3,4-dihydro-6,7-dimethoxyisoquinolinium chloride] | 5 |
| COc1cc2c(cc1OC)C(CCc1ccc(C(C)(C)C)cc1)=[N+](Cc1c(F)c(F)c(F)c(F)c1F)CC2.[Cl-] [Compound No. 130, 1-(2-(4-t-butylphenyl))ethyl-2-(2,3,4,5,6-pentafluorophenyl)methyl-3,4-dihydro-6,7-dimethoxy isoquinolinium chloride] | 4 |
| COc1cc2c(cc1OC)C(C)=[N+](Cc1ccccc1Cl)CC2.[Cl-] [Compound No. 49, 1-methyl-2-(2-chlorophenyl)methyl-3,4-dihydro-6,7-dimethoxyisoquinolinium chloride] | 6 |
